# Source: patent US20110009421A1, “COMPOUND HAVING 6-MEMBERED AROMATIC RING” (TAKEDA PHARMACEUTICAL COMPANY LIMITED, priority 2008, published 2011)
# Biological target: T1, human GPR52 (Homo sapiens, UniProt Q9Y2T5)
# T1 construct: expressed in transfected cells; host or cells: CHO (dhfr-) cells
# Assay: Increased intracellular cAMP levels in human GPR52 expression CHO cells (AlphaScreen cAMP assay)
# Assay type: cell-based
# Conditions: 1 μM test compound, 30 min at 37° C., human GPR52 expression CHO (dhfr−) cells; intracellular cAMP level, 100% = 1 μM 3-(6-(2-(3,4-dimethoxyphenyl)ethoxy)pyridin-2-yl)-N-(2-pyrrolidin-1-ylethyl)benzamide, 0% = DMSO
# Experimental: Increased Intracellular cAMP Levels in Human GPR52 Expression CHO Cells
# 1×10^4 human GPR52 expression CHO (dhfr−) cells were incubated with 1 μM test compound for 30 min at 37° C. in 30 μL assay buffer (HBSS (containing Ca^2+ and Mg^2+), 0.5% BSA, 100 μM IBMX, 100 μM Ro 20-1724, 5 mM HEPES (pH 7.55)) using an OptiPlate-384 (by PerkinElmer). The intracellular cAMP level was then assayed with an EnVision (by PerkinElmer) according to the protocol of the AlphaScreen cAMP Assay Kit (by PerkinElmer). The GPR52 agonist activity was calculated, assuming the intracellular cAMP level to be 100% in the presence of 1 μM of 3-(6-(2-(3,4-dimethoxyphenyl)ethoxy)pyridin-2-yl)-N-(2-pyrrolidin-1-ylethyl)benzamide obtained in Reference Example 39 and assuming the intracellular cAMP level to be 0% when DMSO was added instead of test compound.
# T1 sequence (Q9Y2T5 whole entry): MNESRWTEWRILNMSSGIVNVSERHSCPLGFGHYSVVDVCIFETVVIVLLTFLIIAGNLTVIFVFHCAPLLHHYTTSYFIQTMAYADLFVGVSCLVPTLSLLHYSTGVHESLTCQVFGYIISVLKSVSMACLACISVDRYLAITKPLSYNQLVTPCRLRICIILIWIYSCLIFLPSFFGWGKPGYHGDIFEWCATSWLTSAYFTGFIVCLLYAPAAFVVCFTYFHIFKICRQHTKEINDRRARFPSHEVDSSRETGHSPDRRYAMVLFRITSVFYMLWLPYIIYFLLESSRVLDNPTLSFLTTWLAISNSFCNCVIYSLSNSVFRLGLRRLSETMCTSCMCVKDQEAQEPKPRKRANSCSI
row,Structure (SMILES),GPR52 agonist activity (%)
1,COc1ccc(CCOc2cccc(-c3cccc(C(=O)NCCC(N)=O)c3)n2)cc1OC [Working Example 175],110
2,"O=C(NCCN1CCCC1)c1cccc(-c2cccc(Oc3cccc(Cl)c3Cl)n2)c1 [Working Example 83, 3-(6-(2,3-Dichlorophenoxy)pyridin-2-yl)-N-(2-pyrrolidin-1-ylethyl)benzamide]",97
3,COc1ccc(CCOc2cccc(-c3cccc(C(=O)Nc4ccc5ncccc5c4)c3)n2)cc1OC [Working Example 227],65
4,"COc1ccc(CCOc2ccnc(-c3cccc(C(=O)NCCN4CCCC4)c3)n2)cc1OC [Working Example 45, 3-(4-(2-(3,4-Dimethoxyphenyl)ethoxy)pyrimidin-2-yl)-N-(2-pyrrolidin-1-ylethyl)benzamide]",85
5,"COc1ccc(CCNc2nccc(-c3cccc(NC(C)=O)c3)n2)cc1OC [Working Example 1, N-(3-(2-(2-(3,4-dimethoxyphenyl)ethylamino)pyrimidin-4-yl)phenyl)acetamide]",69
6,COc1ccc(CCOc2cccc(-c3cccc(C(=O)NCCCn4ccnc4)c3)n2)cc1OC [Working Example 203],97
7,"COc1ccc(CCOc2nccc(-c3cccc(C(=O)NCCN4CCCC4)c3)n2)cc1OC [Working Example 46, 3-(2-(2-(3,4-Dimethoxyphenyl)ethoxy)pyrimidin-4-yl)-N-(2-pyrrolidin-1-ylethyl)benzamide]",99
8,"O=C(NCCO)c1cccc(-c2cccc(OCCc3cccc(C(F)(F)F)c3)n2)c1 [Working Example 65, N-(2-hydroxyethyl)-3-(6-(2-(3-(trifluoromethyl)phenyl)ethoxy)pyridin-2-yl)benzamide]",64
9,COc1ccc(CCOc2cccc(-c3cccc(C(=O)NCCCO)c3)n2)cc1OC [Working Example 170],79
10,COc1ccc(CCOc2cccc(-c3cccc(C(=O)Nc4ccccn4)c3)n2)cc1OC [Working Example 219],94
11,COc1ccc(CCOc2cccc(-c3cccc(C(N)=O)c3)n2)cc1OC [Working Example 49],55
12,COc1cc(CCNc2nccc(-c3cccc(C(=O)NCCN4CCCC4)c3)n2)ccc1F [Working Example 166],109
13,COc1ccc(CCOc2cccc(-c3cccc(NC(=O)Cn4ccnc4)c3)n2)cc1OC [Working Example 302],57
14,"N#CCCNC(=O)c1cc(-c2cccc(Oc3ccc(Cl)cc3Cl)n2)ccc1F [Working Example 113, N-(2-cyanoethyl)-5-(6-(2,4-dichlorophenoxy)pyridin-2-yl)-2-fluorobenzamide]",77
15,O=C(NCCN1CCCC1)c1cccc(-c2ccnc(NCCc3ccc(F)c(Cl)c3)n2)c1 [Working Example 164],107
16,"COc1cccc(CCOc2cccc(-c3cccc(C(=O)NC4CCOCC4)c3)n2)c1 [Working Example 67, 3-(6-(2-(3-Methoxyphenyl)ethoxy)pyridin-2-yl)-N-(tetrahydro-2H-pyran-4-yl)benzamide]",48
17,"N#CCCNC(=O)c1cccc(-c2cccc(Oc3cccc(Cl)c3)n2)c1 [Working Example 125, 3-(6-(3-Chlorophenoxy)pyridin-2-yl)-N-(2-cyanoethyl)benzamide]",55
18,"O=C(NCCCO)c1cccc(-c2cccc(Oc3cc(Cl)cc(Cl)c3)n2)c1 [Working Example 88, 3-(6-(3,5-Dichlorophenoxy)pyridin-2-yl)-N-(3-hydroxypropyl)benzamide]",62
